Results from publication PMC11981762 (Computational and Structural Biotechnology Journal, 2025).
Changes are numbered by the printed parent chain.

Columns and labels:
[1] = target: T1, human neuronal glycine receptor α1 (Homo sapiens, UniProt P23415); test: Two-electrode voltage clamp of glycine-evoked current; type: cell-based
T1 sequence (P23415 29-457): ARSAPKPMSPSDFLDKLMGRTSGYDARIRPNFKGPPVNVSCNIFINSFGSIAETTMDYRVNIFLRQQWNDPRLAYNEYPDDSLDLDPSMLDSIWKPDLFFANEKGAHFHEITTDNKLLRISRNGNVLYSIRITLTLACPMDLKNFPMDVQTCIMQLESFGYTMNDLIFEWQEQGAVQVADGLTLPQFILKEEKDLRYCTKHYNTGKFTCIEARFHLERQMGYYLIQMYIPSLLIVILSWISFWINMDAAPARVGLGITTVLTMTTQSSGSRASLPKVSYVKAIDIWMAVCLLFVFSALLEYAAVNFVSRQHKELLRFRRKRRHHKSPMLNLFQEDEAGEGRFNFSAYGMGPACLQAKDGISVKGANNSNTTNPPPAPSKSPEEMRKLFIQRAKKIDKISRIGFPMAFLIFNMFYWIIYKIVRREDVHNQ

[2] = cited from earlier work
[3] = target: T2, glycine receptor α1 F124A (Homo sapiens, UniProt P23415, F136A); type: cell-based
T2 sequence (P23415 29-457 F136A): T1 sequence (P23415 29-457) with F108A

[4] = target: T3, 5-HT3a (Homo sapiens, UniProt P46098); test: Interaction with ligand-gated channel 5-HT3a
T3 sequence (P46098 24-478): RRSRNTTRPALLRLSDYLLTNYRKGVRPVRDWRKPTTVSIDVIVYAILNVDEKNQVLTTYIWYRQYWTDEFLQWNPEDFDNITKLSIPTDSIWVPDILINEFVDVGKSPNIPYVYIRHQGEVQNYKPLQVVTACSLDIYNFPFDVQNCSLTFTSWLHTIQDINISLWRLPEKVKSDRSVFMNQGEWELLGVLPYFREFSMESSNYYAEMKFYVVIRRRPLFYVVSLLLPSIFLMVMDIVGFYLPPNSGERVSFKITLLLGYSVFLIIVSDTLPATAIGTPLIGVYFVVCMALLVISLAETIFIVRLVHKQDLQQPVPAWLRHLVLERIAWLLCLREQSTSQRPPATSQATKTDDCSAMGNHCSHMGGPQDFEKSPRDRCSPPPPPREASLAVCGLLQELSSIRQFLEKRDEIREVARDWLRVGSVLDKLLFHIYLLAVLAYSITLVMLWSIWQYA

[5] = target: T4, glycine receptor α1 F124A + D130A (Homo sapiens, UniProt P23415, D142A/F136A); type: cell-based; conditions: double mutant α1 F124A and D130A
T4 sequence (P23415 29-457 F136A/D142A): T1 sequence (P23415 29-457) with F108A, D114A

[6] = target: T5, glycine receptor α1 D130A (Homo sapiens, UniProt P23415, D142A); type: cell-based
T5 sequence (P23415 29-457 D142A): T1 sequence (P23415 29-457) with D114A

[7] = glycine concentration-response in presence of 10 µM EG
[8] = glycine concentration-response in presence of 100 µM EG

With `NCC(=O)O` [glycine] the “nH (Hill's coefficient) of glycine-induced current” value (“nH … of glycine-induced current” for short) ([1]; Control, absence of ergotamine) was 1.1 ± 0.3 and the “Imax (maximum response) of glycine-induced current” value (from here on “Imax … of glycine-induced current”) ([1]; Control, absence of ergotamine, glycine 0.3 to 100 µM, −80 mV) was 99.6 ± 2.4.

In the case of `CN1C[C@H](C(=O)N[C@]2(C)O[C@@]3(O)[C@@H]4CCCN4C(=O)[C@H](Cc4ccccc4)N3C2=O)C=C2c3cccc4[nH]cc(c34)C[C@H]21` [ergotamine], the “penetration across the blood-brain barrier” value [2] is given as “relatively poor penetration”, the IC50 [3] is given as 25.7 ± 2.9 µM and the “Imax (maximum response) of ergotamine inhibition of glycine-evoked current” value ([3]; α1 F124A) is given as 42.4 ± 1.5. For the same compound, the “nH (Hill's coefficient)” value ([3]; α1 F124A) was 1.3 ± 0.1, the “interaction with 5-HT3a” value [4] was “does not interact” and the IC50 [1] was 5.7 ± 0.7 µM. For the same compound, the reversal potential ([1]; application of ergotamine and glycine or glycine alone, voltage ramp −100 to +60 mV) was “approximately 0 mV”, the “inhibition of IGly in voltage ramp” value ([1]; ergotamine 10 µM + 100 µM glycine, at +60 mV) was 42.3 ± 6.2% and the “inhibition of IGly in voltage ramp” value ([1]; ergotamine 10 µM + 100 µM glycine, at −100 mV) was 39.9 ± 4.8%. For the same compound, the “inhibition of IGly in voltage ramp” value ([1]; ergotamine 100 µM + 100 µM glycine, at +60 mV) was 74.6 ± 5.4%, the “inhibition of IGly in voltage ramp” value ([1]; ergotamine 100 µM + 100 µM glycine, at −100 mV) was 71.9 ± 4.1% and the “voltage dependence of inhibition (current-voltage relationship)” value ([1]; ergotamine 10 or 100 µM + 100 µM glycine, ramps −100 to +60 mV) was “voltage insensitive”. The “reversibility of inhibition of IGly” value ([1]; ergotamine and glycine co-application, washout) was “reversible”, the “relation between glycine and ergotamine (competition test)” value ([1]; glycine 0–100 µM with or without ergotamine 10 or 100 µM) was “non-competitive” and the “Imax … of glycine-induced current” value [1, 7] was 53.9 ± 2.3. For the same compound, the “nH … of glycine-induced current” value [1, 7] was 1.2 ± 0.2, the “Imax … of glycine-induced current” value [1, 8] was 31.7 ± 0.5 and the “nH … of glycine-induced current” value [1, 8] was 0.9 ± 0.2. The effect on desensitization ([1]; prolonged glycine application) was “did not alter desensitization kinetics or induce desensitization”, the inhibition at 10 µM ([1]; read-out: inhibition of the current stimulated by 100 µM glycine) was 59.8 ± 2.9% and the “effect of ergotamine alone on IGly” value ([1]; various concentrations of ergotamine without glycine, holding potential −80 mV) was “no effect”. The “nH (Hill's coefficient)” value ([1]; α1 wild) was 1.2 ± 0.2, the “Imax (maximum response) of ergotamine inhibition of glycine-evoked current” value ([1]; α1 wild, 100 µM glycine, −80 mV) was 91.5 ± 2.2 and the Hill coefficient [5] was 1.9 ± 0.6. The IC50 [6] was 28.1 ± 9.7 µM, the “Imax (maximum response) of ergotamine inhibition of glycine-evoked current” value ([6]; α1 D130A) was 32.1 ± 8.8 and the “nH (Hill's coefficient)” value ([6]; α1 D130A) was 1.1 ± 0.3.
